Measured values reported in publication PMC6934184, “Selective DNA-PKcs inhibition extends the therapeutic index of localized radiotherapy and chemotherapy” (The Journal of Clinical Investigation, 2019).

Biological target: T1, PRKCZ (PKC zeta) (Homo sapiens, UniProt Q05513)
T1 construct: purchased Thermo Fisher Scientific (Life Technologies) SelectScreen
Assay: SelectScreen Z'LYTE
Type: biochemical
In short: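 SelectScreen broad panel; activity (Z'LYTE, Adapta) plus binding formats. ATP: Km app for CSF1R Z'LYTE; 10 for CAMK1 Adapta. Readout = % per kinase.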

T1 sequence (Q05513 whole entry): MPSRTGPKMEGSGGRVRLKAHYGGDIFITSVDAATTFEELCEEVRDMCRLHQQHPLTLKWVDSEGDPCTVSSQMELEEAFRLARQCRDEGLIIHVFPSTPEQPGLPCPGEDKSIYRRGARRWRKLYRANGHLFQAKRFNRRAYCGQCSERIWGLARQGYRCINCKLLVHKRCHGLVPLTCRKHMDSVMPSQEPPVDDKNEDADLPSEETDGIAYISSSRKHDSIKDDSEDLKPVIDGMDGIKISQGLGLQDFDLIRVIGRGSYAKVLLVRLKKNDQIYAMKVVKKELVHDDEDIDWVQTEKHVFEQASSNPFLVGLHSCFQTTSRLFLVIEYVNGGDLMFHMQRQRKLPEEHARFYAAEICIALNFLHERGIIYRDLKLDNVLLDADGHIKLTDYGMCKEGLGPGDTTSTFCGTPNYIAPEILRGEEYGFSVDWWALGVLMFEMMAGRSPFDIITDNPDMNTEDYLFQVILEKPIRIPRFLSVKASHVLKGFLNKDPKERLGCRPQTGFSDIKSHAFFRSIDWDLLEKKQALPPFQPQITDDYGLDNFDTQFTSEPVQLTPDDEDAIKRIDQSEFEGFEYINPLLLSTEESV

Compound CN(C(=O)CN1CCOCC1)c1ccc2sc3c(-c4cccc5c(=O)cc(N6CC7CCC(C6)O7)oc45)cccc3c2c1 [NU5455] has an inhibition at 1 µM of 4.7%.
